Reference: ChEMBL document CHEMBL1151146, “Starfish Saponins, Part 43. Structures of Two New Sulfated Steroidal Fucofuranosides (Imbricatosides A and B) and Six New Polyhydroxysteroids from the Starfish Dermasterias imbricata” (J Nat Prod, 1990)
Active and inactive are the calls of the source. The calls are words filed in the database; no cut-off is given here.

Tests used:
Cladosporium cucumerinum [1] = test: Antimicrobial activity against Cladosporium cucumerinum at <1 ug by TLC-based direct bioautography; format: functional, organism-based
[2] = Inhibition of cell division of fertilized sea urchin eggs; set-up: species or system Egg; details: echinoidea
Cladosporium cucumerinum [3] = test: Antimicrobial activity against Cladosporium cucumerinum at 5 ug by TLC-based direct bioautography; format: functional, organism-based
Cladosporium cucumerinum [4] = test: Antimicrobial activity against Cladosporium cucumerinum at 3 ug by TLC-based direct bioautography; format: functional, organism-based

CC(C)[C@@H](O)/C=C/[C@@H](C)[C@H]1C[C@@H](O)[C@@H]2[C@]1(C)CC[C@@H]1[C@@]3(C)CC[C@H](O)C[C@@H]3[C@@H](O)C[C@]12O
Activity (Cladosporium cucumerinum [1]): Active
Activity [2]: Active

C[C@H](CO)C/C=C/[C@@H](C)[C@H]1C[C@@H](O)[C@@H]2[C@]1(C)CC[C@@H]1[C@@]3(C)CC[C@H](O)C[C@@H]3[C@@H](O)C[C@]12O
Activity (Cladosporium cucumerinum [3]): Active

CC(C)[C@@H](O)CC[C@@H](C)[C@H]1C[C@@H](O)[C@@H]2[C@]1(C)CC[C@@H]1[C@@]3(C)CC[C@H](O)C[C@@H]3[C@@H](O)C[C@]12O
Activity (Cladosporium cucumerinum [4]): Active
